Tests used:
HPK1 [1] = assay: HPK1 IVK assay in primary splenocytes / T lymphocytes; type: cell-based, mouse; settings: primary T lymphocytes (C57BL/6 splenocytes), 10 nM PGE2, 5 min
Experimental: Splenocytes from wild type C57BL/6 were harvested, lysed with RBC lysis buffer (Sigma) and stimulated with 1 μg/ml plate bound anti-CD3 and anti-CD28 or 10 nM PGE2 alone (Calbiochem) for 5 min. at 37° C. Whole cell lysates were subjected to immunoprecipitation with anti-HPK1 antibodies #5 and #6, then subjected to IVK as described in Kiefer et al. (1996, EMBO J. 15:7013-7025). Anti-HPK1 antibody #2 was used as a blotting antibody.
Splenocytes from wild type C57BL/6 were harvested, lysed with RBC lysis buffer (Sigma) and stimulated with 1 μg/ml plate bound anti-CD3 and 1 μg/ml soluble anti-CD28 or with 10 nM PGE2 (Calbiochem) for 5 min. at 37° C. Whole cell lysates were subjected to immunoprecipitation with anti-HPK1 antibodies #5 and #6 and then subjected to IVK as described (1). Anti-HPK1 antibody #2 was used as a blotting antibody.

HPK1 [2] = assay: HPK1 immune complex in vitro kinase (IVK) assay, endogenous HPK1 from treated Jurkat cells; type: cell-based, human; settings: Jurkat cells, 10 pM PGE2
T cells [3] = assay: Apoptosis of TCR-stimulated T cells, annexin V / 7AAD staining; type: cell-based, mouse
T cells [4] = assay: IL-2 production by ELISA of T cell supernatants; type: cell-based, mouse
Experimental: Supernatants from the proliferation assay were collected for ELISA prior to addition of ^3H-thymidine. The protocol used for ELISA followed the instructions from BD Pharmingen.
Supernatants from the proliferation assay were collected for ELISA prior to addition of ^3H thymidine. For profiling experiments, supernatants were collected as above, with variable time points. […] Cells were then washed with PBS, re-seeded in fresh medium and stimulated with 2 μg/ml plate bound anti-CD3 and 1 μg/ml soluble anti-CD28 for eight hours and supernatants were collected for analysis. Protocol used for ELISA follows BD Pharmingen instructions.

[5] = test system: wild type HEK 293-EBNA cell line; assay: IVK assay of HA-HPK1 from wild type HEK 293-EBNA cells (no EP2/EP4); type: cell-based, human; settings: absence of EP2 and EP4 receptor, PGE2 stimulation
T cells [6] = assay: Mixed leukocyte reaction (MLR) T cell proliferation, 3H-thymidine; type: cell-based, mouse; settings: MLR with LPS-matured BMDCs, addition of PGE2
Experimental: MLR was performed as described in Sallusto et al. (1994, J. Exp. Med. 179:1009-1118) with minor modifications. Naïve T cells from an allogeneic SJL mouse were purified using CD62L magnetic beads (Milentyi Biotech, Inc., CA). In a 96-well round bottom plate, T cells (1×10^5) were used as responders and incubated with HPK1^−/− and wild type, immature or LPS-matured bone marrow derived dendritic cells (BMDCs) as stimulators. Naïve T cells plus 10 μg/ml ConA were used as a positive control.
In these experiments, T cells were purified and subjected to a mixed leukocyte reaction (MLR) with wild type allogeneic BMDCs in the presence or absence of PGE2. […] To assess this, the same study was repeated under conditions where the magnitude of the MLR response was similar in the two cell types by manipulating the T cell to DC ratio. […] Similar resistance to PGE2 was observed when HPK1^−/− T cells were stimulated by T cell receptor activation with anti-CD3- and anti-CD28-mediated crosslinking in the presence of PGE2 (FIG. 20B).

T cells [7] = assay: FACS of TCR-stimulated T cells: Foxp3 expression and side-scatter profile; type: cell-based, mouse
Source text: This is due in part to the fact that HPK^−/− T cells produce more IL-2. However, other factors may play a role in the increased percentage of cells expressing CD25. To determine whether regulatory T cell (Treg) transcription factor, Foxp3, was a factor, the expression of […] in HPK^−/− cells was examined in this population. It has been shown that PGE2 induces the expression of Foxp3 in both human and mouse T cells. Because of the inhibitory nature of these T cell subsets, there was a question of whether the conditions of stimulation generated fewer Tregs in the HPK1^−/− culture, as this might explain the enhanced functionality of these T cells.
However, a decrease was detected in the number of cells in the side-scatter profile of wild type T cells exposed to PGE2, indicating a decrease in cell viability. […] Indeed, when these cells were stained for annexin V to determine the amount of apoptosis, PGE2 did increase the number of wild type cells undergoing apoptosis by over 75%, compared to 47% in cells not treated with PGE2.

HPK1 [8] = assay: Western blot of immunoprecipitated HPK1 with anti-phosphorylated PKA substrate antibody; type: cell-based, human; settings: Jurkat T cells stimulated with PGE2 for 10 min
Experimental: The primary sequence of HPK1 was examined for the preferred PKA phosphorylation site on HPK1. Within the activation loop of HPK1, there exists a perfect PKA phosphorylation site at serine 171 (FIG. 12A). This serine is conserved in all members of the KHS subfamily of STE20 kinases. To determine whether PKA can directly phosphorylate HPK1 upon stimulation by PGE2, experiments were conducted using an anti-phospho PKA substrate antibody that recognizes the arginine-based motif that is present at sites that are phosphorylated by PKA (FIG. 12A).
In these experiments, Jurkat T cells were stimulated with PGE2 for 10 min., lysed, and immunoprecipitated HPK1 was subjected to Western blot analysis using anti-phosphorylated PKA substrate antibody. […] Similarly, the antibody also recognized HPK1 immunoprecipitated from cells that were treated with anti-CD3 (FIG. 12B, lane 2).

[9] = Example 4, ELISA, addition of PGE2
[10] = Example 7, 3 day TCR stimulated cells, ELISA, 1 nM PGE2

CCCCC[C@H](O)/C=C/[C@H]1[C@H](O)CC(=O)[C@@H]1C/C=C\CCCC(=O)O [PGE2, prostaglandin E2]
increase in HPK1 kinase activity (HPK1 [1]): three-fold | HPK1 catalytic activity (IVK) (HPK1 [2]): activate the catalytic activity of HPK1 | wild type cells undergoing apoptosis (annexin V) (T cells [3]; three days of TCR stimulation with PGE2, 47% in cells not treated with PGE2): over 75% | rate of HPK1−/− T cell apoptosis (T cells [3]; three days of TCR stimulation, addition of PGE2): did not significantly increase | percentage of IL-2 inhibition, HPK1−/− T cells (T cells [4]; [9]): ~30% | percentage of IL-2 inhibition, wild type T cells (T cells [4]; [9]): ~84% | inhibition of IL-2 production, HPK1−/− T cells (T cells [4]; [10]): ~26% | inhibition of IL-2 production, wild type cells (T cells [4]; [10]): ~88% | HPK1 kinase activity (IVK), wild type HEK 293-EBNA [5]: failed to respond | inhibition of proliferation, HPK1−/− T cells, MLR (T cells [6]): ~25% | inhibition of proliferation, wild type T cells, MLR (T cells [6]): ~90% | Foxp3 expression (T cells [7]; HPK+/+ or HPK−/− cells, TCR crosslinking 3 days, with versus without PGE2): did not induce a higher Foxp3 expression | number of cells in the side-scatter profile (cell viability), wild type T cells (T cells [7]; exposed to PGE2): decrease | pattern of side-scatter, HPK1−/− T cells (T cells [7]; with or without PGE2): no difference | recognition of HPK1 by anti-phosphorylated PKA substrate antibody (HPK1 [8]): recognized the phosphorylated HPK1
